Experimental data from US20200138827A1, “SMALL MOLECULE MODULATORS OF HUMAN STING” (Curadev Pharma Limited, priority 2017, published 2020).

target: T1, WT/R232 STING protein (Homo sapiens, UniProt Q86WV6, H232R); experiment: Luciferase reporter assay in HEK293T-hSTING-Luciferase cells, WT/R232; assay type: cell-based; details: 20 hr stimulation, read-out: R232 Activity (EC50 range)
T1 construct: host or cells: HEK293T
Method in brief: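 Clonal HEK293T cells stably expressing human STING R232 plus an ISRE/ISG54-driven luciferase reporter, 5×10^5 per well, stimulated with compounds for 20 h. Secreted luciferase in supernatant measured by luminescence; […].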

T1 sequence (Q86WV6 whole entry H232R): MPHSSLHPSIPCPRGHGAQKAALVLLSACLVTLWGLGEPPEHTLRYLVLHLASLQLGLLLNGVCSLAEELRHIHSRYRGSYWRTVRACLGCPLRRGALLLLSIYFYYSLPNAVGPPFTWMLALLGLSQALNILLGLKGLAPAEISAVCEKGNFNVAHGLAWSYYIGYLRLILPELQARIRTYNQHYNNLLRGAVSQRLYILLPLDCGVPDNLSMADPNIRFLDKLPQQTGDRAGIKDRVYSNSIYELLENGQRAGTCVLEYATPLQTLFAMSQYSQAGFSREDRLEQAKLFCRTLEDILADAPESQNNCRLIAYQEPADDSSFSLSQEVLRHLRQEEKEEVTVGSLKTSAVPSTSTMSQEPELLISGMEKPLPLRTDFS

SMILES	EC50 [µM]
COc1ccc(CCNC(=O)c2ccc3c(c2)N(Cc2ccccc2)C(=O)CS3)cc1OC [Example 171, 4-benzyl-N-(3,4-dimethoxy-phenethyl)-3-oxo-3,4-dihydro-2H-benzo[b][1,4] thiazine-6-carboxamide]	> 10
CC1Sc2ccc(C(=O)NCc3ccn(C)n3)cc2N(Cc2c(F)cccc2Cl)C1=O (centres unmarked) [Example 172, 4-(2-chloro-6-fluorobenzyl)-2-methyl-N-((1-methyl-1H-pyrazol-3-yl)methyl)-3-oxo-3,4-dihydro-2H-benzo[b] [1,4]thiazine-6-carboxamide]	> 10
Cc1cnc(CNC(=O)c2ccc3c(c2)N(Cc2cnn(C)c2)C(=O)C(C)S3)o1 (centres unmarked) [Example 173, 2-methyl-4-((1-methyl-1H-pyrazol-4-yl)methyl)-N-((5-methyloxazol-2-yl)methyl)-3-oxo-3,4-dihydro-2H-benzo[b][1,4] thiazine-6-carboxamide]	> 10
CC1Sc2ccc(C(=O)NCCc3c(F)cc(F)cc3F)nc2N(Cc2cc(F)cc(F)c2)C1=O (centres unmarked) [Example 174, 4-(3,5-difluorobenzyl)-2-methyl-3-oxo-N-(2,4,6-trifluoro-phenethyl)-3,4-dihydro-2H-pyrido[3,2-b][1,4]thiazine-6-carboxamide]	> 10
O=C(O)CC1Sc2ccc(C(=O)NCc3ccco3)cc2N(Cc2ccccc2F)C1=O (centres unmarked) [Example 175, 2-(4-(2-fluorobenzyl)-6-((furan-2-ylmethyl)carbamoyl)-3-oxo-3,4-dihydro-2H-benzo[b][1,4]thiazin-2-yl)acetic acid]	> 10
NC(=O)CC1Sc2ccc(C(=O)NCc3ccc(F)cc3F)cc2N(Cc2cc(F)cc(F)c2)C1=O (centres unmarked) [Example 176, 2-(2-amino-2-oxoethyl)-N-(2,4-difluorobenzyl)-4-(3,5-difluorobenzyl)-3-oxo-3,4-dihydro-2H-benzo[b] [1,4]thiazine-6-carboxamide]	> 10
O=C(NCc1ccco1)c1cnc2c(c1)N(Cc1c(F)cccc1Cl)C(=O)CS2 [Example 177, 1-(2-Chloro-6-fluorobenzyl)-N-(furan-2-ylmethyl)-2-oxo-2,3-dihydro-1H-pyrido[2,3-b-1,4]thiazine-7-carboxamide]	> 10
O=C(NCC1CCCCC1)c1cnc2c(c1)N(Cc1c(F)cccc1Cl)C(=O)CS2 [Example 179, 1-(2-chloro-6-fluorobenzyl)-N-(cyclohexyl-methyl)-2-oxo-2,3-dihydro-1H-pyrido[2,3-b-1,4]thiazine-7-carboxamide]	> 10
O=C(NCc1ccco1)c1cnc2c(c1)N(Cc1ccccc1)C(=O)CS2 [Example 180, 1-benzyl-N-(furan-2-ylmethyl)-2-oxo-2,3-dihydro-1H-pyrido[2,3-b-1,4]thiazine-7-carboxamide]	> 10
O=C(NCc1ccco1)c1cc2c(cn1)SCC(=O)N2Cc1c(F)cccc1Cl [Example 182, 1-(2-chloro-6-fluorobenzyl)-N-(furan-2-ylmethyl)-2-oxo-2,3-dihydro-1H-pyrido[3,4-b-1,4]thiazine-7-carboxamide]	> 10
Cc1cccc(CNC(=O)c2ccc3c(n2)N(Cc2c(F)cccc2Cl)C(=O)C(C)S3)c1 (centres unmarked) [Example 184, 4-(2-chloro-6-fluorobenzyl)-2-methyl-N-(3-methylbenzyl)-3-oxo-3,4-dihydro-2H-pyrido[3,2-b-1,4]thiazine-6-carboxamide]	> 10
CC1Sc2ccc(C(=O)NCc3c(F)cc(F)cc3F)nc2N(Cc2cc(F)cc(F)c2)C1=O (centres unmarked) [Example 185, 4-(3,5-difluorobenzyl)-2-methyl-3-oxo-N-(2,4,6-trifluorobenzyl)-3,4-dihydro-2H-pyrido[3,2-b-1,4]thiazine-6-carboxamide]	1 to 10
CC1Sc2ccc(C(=O)NCc3c(F)cc(F)cc3F)nc2N(Cc2c(F)cccc2Cl)C1=O (centres unmarked) [Example 186, 4-(2-chloro-6-fluorobenzyl)-2-methyl-3-oxo-N-(2,4,6-trifluorobenzyl)-3,4-dihydro-2H-pyrido[3,2-b-1,4]thiazine-6-carboxamide]	1 to 10
Cc1ccc(CNC(=O)c2ccc3c(n2)N(C(C)c2cc(F)cc(F)c2)C(=O)C(C)S3)o1 (centres unmarked) [Example 204, 4-(1-(3,5-difluorophenyl)ethyl)-2-methyl-N-((5-methylfuran-2-yl)methyl)-3-oxo-3,4-dihydro-2H-pyrido[3,2-b] [1,4] thiazine-6-carboxamide]	1 to 10
Cc1ccc(CNC(=O)c2ccc3c(n2)N(Cc2cccc(C(N)=O)c2)C(=O)C(C)S3)o1 (centres unmarked) [Example 205, 4-(3-carbamoyl-benzyl)-2-methyl-N-((5-methylfuran-2-yl)methyl)-3-oxo-3,4-dihydro-2H-pyrido[3,2-b][1,4]thiazine-6-carboxamide]	1 to 10
COc1cc(CN2C(=O)C(C)Sc3ncc(C(=O)NCc4c(F)cc(F)cc4F)cc32)ccn1 (centres unmarked) [Example 206, 1-((2-methoxypyridin-4-yl)methyl)-3-methyl-2-oxo-N-(2,4,6-trifluorobenzyl)-2,3-dihydro-1H-pyrido[2,3-b][1,4] thiazine-7-carboxamide]	1 to 10

SMILES	EC50 [µM]
Cc1ccc(CNC(=O)c2cnc3c(c2)N(Cc2c(F)cccc2Cl)C(=O)CS3)o1 [Example 207, 1-(2-chloro-6-fluorobenzyl)-N-((5-methylfuran-2-yl)methyl)-2-oxo-2,3-dihydro-1H-pyrido [2,3-b][1,4] thiazine-7-carboxamide]	1 to 10
CC1Sc2ncc(C(=O)NCc3cc4ccccc4o3)cc2N(Cc2cc(F)cc(F)c2)C1=O (centres unmarked) [Example 208, N-(benzofuran-2-ylmethyl)-1-(3,5-difluorobenzyl)-3-methyl-2-oxo-2,3-dihydro-1H-pyrido[2,3-b][1,4] thiazine-7-carboxamide]	> 10
Cc1ccc(CNC(=O)c2cnc3c(c2)N(Cc2cc(F)cc(F)c2)C(=O)C(C)(CO)S3)o1 (centres unmarked) [Example 209, 1-(3,5-difluorobenzyl)-3-(hydroxymethyl)-3-methyl-N-((5-methylfuran-2-yl)methyl)-2-oxo-2,3-dihydro-1H-pyrido [2,3-b] [1,4]thiazine-7-carboxamide]	> 10
CC1(CO)Sc2ncc(C(=O)NCc3cc4ccccc4o3)cc2N(Cc2cc(F)cc(F)c2)C1=O (centres unmarked) [Example 210, N-(benzofuran-2-ylmethyl)-1-(3,5-difluorobenzyl)-3-(hydroxymethyl)-3-methyl-2-oxo-2,3-dihydro-1H-pyrido[2,3-b] [1,4] thiazine-7-carboxamide]	> 10
CC1(CO)Sc2ncc(C(=O)NCc3c(F)cc(F)cc3F)cc2N(Cc2cc(F)cc(F)c2)C1=O (centres unmarked) [Example 211, 1-(3,5-difluorobenzyl)-3-(hydroxymethyl)-3-methyl-2-oxo-N-(2,4,6-trifluorobenzyl)-2,3-dihydro-1H-pyrido [2,3-b] [1,4]thiazine-7-carboxamide]	> 10
Cc1noc(CNC(=O)c2cnc3c(c2)N(Cc2cc(F)cc(F)c2)C(=O)C(C)S3)n1 (centres unmarked) [Example 212, 1-(3,5-difluorobenzyl)-3-methyl-N-((3-methyl-1,2,4-oxadiazol-5-yl)methyl)-2-oxo-2,3-dihydro-1H-pyrido[2,3-b] [1,4] thiazine-7-carboxamide]	> 10
Cc1cnc(CNC(=O)c2cnc3c(c2)N(Cc2cc(F)cc(F)c2)C(=O)C(C)S3)o1 (centres unmarked) [Example 213, 1-(3,5-difluorobenzyl)-3-methyl-N-((5-methyloxazol-2-yl)methyl)-2-oxo-2,3-dihydro-1H-pyrido[2,3-b][1,4]thiazine-7-carboxamide]	> 10
CC1Sc2ncc(C(=O)NCc3cccnn3)cc2N(Cc2cc(F)cc(F)c2)C1=O (centres unmarked) [Example 214, 1-(3,5-difluorobenzyl)-3-methyl-2-oxo-N-(pyridazin-3-ylmethyl)-2,3-dihydro-1H-pyrido [2,3-b][1,4] thiazine-7-carboxamide]	> 10
CC1Sc2ncc(C(=O)NCc3ccn(C)n3)cc2N(Cc2cc(F)cc(F)c2)C1=O (centres unmarked) [Example 215, 1-(3,5-difluorobenzyl)-3-methyl-N-((1-methyl-1H-pyrazol-3-yl)methyl)-2-oxo-2,3-dihydro-1H-pyrido[2,3-b][1,4]thiazine-7-carboxamide]	> 10
CC1Sc2ncc(C(=O)NCc3cnn(C)c3)cc2N(Cc2cc(F)cc(F)c2)C1=O (centres unmarked) [Example 216, 1-(3,5-difluorobenzyl)-3-methyl-N-((1-methyl-1H-pyrazol-4-yl)methyl)-2-oxo-2,3-dihydro-1H-pyrido[2,3-b][1,4] thiazine-7-carboxamide]	> 10
CC1Sc2ncc(C(=O)NCc3cnccn3)cc2N(Cc2cc(F)cc(F)c2)C1=O (centres unmarked) [Example 217, 1-(3,5-difluorobenzyl)-3-methyl oxo-N-(pyrazin-2-ylmethyl)-2,3 dihydro-1H-pyrido[2,3-b][1,4]thiazine-7-carboxamide]	> 10
N#Cc1cc(C(=O)NCc2ccco2)cc2c1SCC(=O)N2Cc1ccccc1 [Example 219, 4-Benzyl-8-cyano-N-(furan-2-ylmethyl)-3-oxo-3,4-dihydro-2H-benzo[b-1,4]thiazine-6-carboxamide]	> 10
N#Cc1cc(C(=O)NCc2ccco2)cc2c1SCC(=O)N2Cc1cc(F)cc(F)c1 [Example 220, 8-cyano-4-(3,5-difluorobenzyl)-N-(furan-2-ylmethyl)-3-oxo-3,4-dihydro-2H-benzo[b-1,4]thiazine-6-carboxamide]	> 10
O=C(NCc1ccco1)c1cc(Br)c2c(c1)N(Cc1ccccc1F)C(=O)CS2 [Example 221, 8-bromo-4-(2-fluorobenzyl)-N-(furan-2-ylmethyl)-3-oxo-3,4-dihydro-2H-benzo[b-1,4]thiazine-6-carboxamide]	> 10
O=C(NCc1c(F)cc(F)cc1F)c1cc(CCO)c2c(c1)N(Cc1ccc(F)cc1)C(=O)CS2 [Example 222, 4-(4-fluorobenzyl)-8-(2-hydroxyethyl)-3-oxo-N-(2,4,6-trifluorobenzyl)-3,4-dihydro-2H-benzo[b][1,4] thiazine-6-carboxamide]	> 10
CC(O)c1cc(C(=O)NCc2c(F)cc(F)cc2F)cc2c1SCC(=O)N2Cc1ccc(F)cc1 (centres unmarked) [Example 223, 4-(4-fluorobenzyl)-8-(1-hydroxyethyl)-3-oxo-N-(2,4,6-trifluorobenzyl)-3,4-dihydro-2H-benzo[b][1,4] thiazine-6-carboxamide]	> 10
